Data as given in publication doi:10.1101/171595v1 (biorxiv, 2017).

Tested on: HpaM
Details: read-out: apparent Km; 50 mM PBS pH 7.0, 0.2 mM FAD, 5HPA as co-substrate, 25°C

## NC(=O)C1=CN([C@@H]2O[C@H](COP(=O)(O)OP(=O)(O)OC[C@H]3O[C@@H](n4cnc5c(N)ncnc54)[C@H](O)[C@@H]3O)[C@@H](O)[C@H]2O)C=CC1 [NADH]
  Km: 37.8 ± 3.4 µM
